Counter-ions that a name gives are not always drawn.
Columns and labels:
RSK2 cysteine 599 (C599) = biological target: T1, RSK2 cysteine 599 (C599) (Mus musculus, UniProt P18654); assay: Mass spectrometric analysis of DMF modification of RSK2; assay type: binding, murine; conditions: chymotrypsin digest, MALDI TOF/TOF
T1 construct: His8 (N, cleaved yes); linker DYDIPTT (N, cleaved yes); TEV protease site ENLYFQG (only the final G remains after cleavage) (N, cleaved yes); made in house; host or cells: E. coli BL21 (DE3) Rosetta, RSK2-pET-22b
Description: (§1) A construct of the C-terminal kinase domain of murine Ribosomal S6 Kinase 2 (RSK2) (residues 400-740; SEQ ID NO. 2) including a N-terminal polyhistidine tag (His8), a linker (DYDIPTT) (SEQ ID NO: 21) and a Tobacco Etch Virus (TEV) protease site (ENLYFQG) (SEQ ID NO: 22) in the expressed kinase was designed and ordered from Genscript. The synthesised gene was subcloned into pET-22b (Novagen) by the vendor resulting in RSK2-pET-22b. BI21 (DE3) Rosetta was transformed with RSK2-pET-22b and plated on lysogeny broth (LB) agar plates supplemented with 50 μg/ml ampicillin (Amp) and 35 μg/ml Chloramphenicol (Cam). 5 colonies were used for inoculation of a 20 ml LB overnight culture supplemented with 100 μg/ml Amp and 35 μg/ml Cam. […] Protein concentration was evaluated by spectrophotometry (Nanodrop, Thermo Fisher Scientific) assuming εRSK2=44350 cm^−1 M^−1 and MRSK2=38.4 kDa. […] RSK2 purity was evaluated by SDS-PAGE using a 15% separation gel. […] The purification procedure resulted >95% pure and stable RSK2 evaluated by SDS-PAGE and mass spectrometry.
RSK2 samples were reduced and alkylated with iodoacetamide, i.e. carbamidomethylated, and subsequently digested with chymotrypsin. […] The peptide mixture was analyzed in positive reflector mode for accurate peptide mass determination. […]

RSK2 = biological target: T2, RSK2 (Mus musculus, UniProt P18654, C599V); assay: Mutational study of RSK2 in EGF-stimulated HEK 293 cells, Western blot p-RSK2 (Ser386); assay type: cell-based; conditions: 140 μM DMF pre-incubated 1 hour, 1 ng/ml EGF for 15 minutes
T2 construct: expressed in transfected cells; host or cells: HEK-293
Description: Human embryonic kidney cells (HEK-293) were cultured in tissue culture flasks (150 cm^2) to 60% confluence in Dulbecco's modified Eagle's medium (DMEM) (Gibco) supplemented with 50 units/ml penicillin G (Gibco), […] streptomycin (Invitrogen), 5 μg/ml gentamycin (Gibco), 10% (v/v) foetal bovine serum (FBS) (Gibco) and 2.5% HEPES (Gibco). Cells were trypsinated and seeded in 10 cm petri dishes at a density of 6.5×10^6 cells per dish in 10 ml DMEM supplemented with 50 μg/ml bovine pituitary growth hormone (BGH) (Gibco), antibiotics (penicillin G, streptomycin, gentamycin) and 2% FBS and 2.5% HEPES and were incubated for 2 days. The culture medium was changed to 7 ml DMEM supplemented with 2.5% Hepes for 16 hours. Transfection with plasmids was performed as previously described Jensen et al. 1999^57 with modifications. HEK-293 cells were transfected using 3.5 μg plasmid DNA/dish dissolved in 250 μl Optimem (Invitrogen) and 30 μl Lipofectamine 2000 (Invitrogen) dissolved in 250 μl Optimem added together for 20 minutes before transferred to cells. […]
(§2) Dimethylfumarate (DMF) (Sigma-Aldrich) was dissolved in dimethylsulfoxide (DMSO) (Merck) resulting in a 70 mM stock solution and diluted to 7 mM (4% v/v DMSO) in culture medium. […] Densitometry analysis of the band intensity was performed on a flatbed scanner (Epson PERFECTION V750PRO) and quantitated by Jelly Quant.

[1] = biological target: T3, C-terminal kinase domain of murine RSK2 (Mus musculus, UniProt P18654); assay: X-ray co-crystal structure of RSK2 C-terminal kinase domain with DMF; assay type: binding; conditions: 1.9 Å resolution X-ray crystal structure; RSK2 8 mg/ml with 5 mM DMF, 30 min at room temperature
T3 construct: His8 (N, cleaved yes); linker DYDIPTT (N, cleaved yes); TEV protease site ENLYFQG (only the final G remains after cleavage) (N, cleaved yes); made in house; host or cells: E. coli BL21 (DE3) Rosetta, RSK2-pET-22b
Description: as §1, with “Cam. 2 liters of LB, supplemented with 100 μg/ml Amp and 35 μg/ml Cam, was inoculated with the overnight culture and grown at 37° C. Expression was induced with 0.1 mM isopropyl β-D-1-thiogalactopyranoside at an optical density of A600 nm=0.8 and the temperature was lowered to 20° C. for 3 h and further lowered to 12° C. for 20 hours.” for “Cam.”, “spectrometry. […]” for “spectrometry.”

human MSK1 = biological target: T4, human MSK1 (Homo sapiens, UniProt O75582, C603V); assay: Mutational study of MSK1 in EGF-stimulated HEK 293 cells, Western blot p-MSK1 (Ser376); assay type: cell-based; conditions: 140 μM DMF pre-incubated 1 hour, 1 ng/ml EGF for 30 minutes
T4 construct: expressed in transfected cells; host or cells: HEK-293, vector pEBG2T
Description: Mutational analysis of MSK1 was performed in a mammalian expression vector (pEBG2T) in which a glutathione S-transferase (GST) domain and FLAG-tag (Asp-Tyr-Lys-Asp-Asp-Asp-Asp-Lys) was fused to the N-terminus of human MSK1 (GST-FLAG-MSK1)^6. The positions corresponding to C436, T579 and C599 in murine RSK2 (SEQ ID NO: 1) of human MSK1 (C440, T583 and C603) were mutated to Val, Ser and Thr (For T583 only an Ala mutation was performed) using the QuikChange Lightning Kit (Agilent Technologies).
Human embryonic kidney cells (HEK-293) were cultured in tissue culture flasks (150 cm^2) to 60% confluence in Dulbecco's modified Eagle's medium (DMEM) (Gibco) supplemented with 50 units/ml penicillin G (Gibco), […] streptomycin (Invitrogen), 5 μg/ml gentamycin (Gibco), 10% (v/v) foetal bovine serum (FBS) (Gibco) and 2.5% HEPES (Gibco). […]
as §2, with “Quant. […]” for “Quant.”

T4 sequence (O75582 whole entry C603V): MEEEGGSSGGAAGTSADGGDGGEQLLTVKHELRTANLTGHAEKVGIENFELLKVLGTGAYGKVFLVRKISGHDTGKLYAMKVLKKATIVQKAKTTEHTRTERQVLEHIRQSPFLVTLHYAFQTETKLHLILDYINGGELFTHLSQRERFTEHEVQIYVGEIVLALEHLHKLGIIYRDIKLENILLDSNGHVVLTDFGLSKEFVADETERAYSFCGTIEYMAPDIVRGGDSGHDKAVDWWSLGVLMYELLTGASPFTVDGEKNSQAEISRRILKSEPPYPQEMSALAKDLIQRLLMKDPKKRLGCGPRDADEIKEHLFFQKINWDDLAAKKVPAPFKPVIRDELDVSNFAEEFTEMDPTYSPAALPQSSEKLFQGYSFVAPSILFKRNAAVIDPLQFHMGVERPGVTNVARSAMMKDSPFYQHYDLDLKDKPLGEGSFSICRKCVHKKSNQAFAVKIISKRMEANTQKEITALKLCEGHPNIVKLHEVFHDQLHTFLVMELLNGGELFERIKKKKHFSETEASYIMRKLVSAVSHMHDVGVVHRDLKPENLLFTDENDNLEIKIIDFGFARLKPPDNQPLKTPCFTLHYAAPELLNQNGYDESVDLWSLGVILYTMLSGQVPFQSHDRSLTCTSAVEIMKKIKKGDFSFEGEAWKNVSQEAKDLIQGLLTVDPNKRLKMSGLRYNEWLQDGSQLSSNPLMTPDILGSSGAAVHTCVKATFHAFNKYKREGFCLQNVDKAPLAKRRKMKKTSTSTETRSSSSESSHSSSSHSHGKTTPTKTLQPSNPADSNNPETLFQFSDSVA
T1 sequence (P18654 with tags, fused parts or gaps): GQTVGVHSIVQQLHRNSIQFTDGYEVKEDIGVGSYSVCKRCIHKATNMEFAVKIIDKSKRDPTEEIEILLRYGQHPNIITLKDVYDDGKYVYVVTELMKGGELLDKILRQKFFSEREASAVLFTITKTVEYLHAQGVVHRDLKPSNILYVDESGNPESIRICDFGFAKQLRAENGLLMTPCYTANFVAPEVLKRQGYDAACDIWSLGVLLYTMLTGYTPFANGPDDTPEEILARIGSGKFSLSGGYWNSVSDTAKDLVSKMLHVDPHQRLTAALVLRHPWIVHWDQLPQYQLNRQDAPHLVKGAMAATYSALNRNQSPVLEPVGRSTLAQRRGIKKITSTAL
T3 sequence (P18654 with tags, fused parts or gaps): as above
T2 sequence (P18654 whole entry C599V): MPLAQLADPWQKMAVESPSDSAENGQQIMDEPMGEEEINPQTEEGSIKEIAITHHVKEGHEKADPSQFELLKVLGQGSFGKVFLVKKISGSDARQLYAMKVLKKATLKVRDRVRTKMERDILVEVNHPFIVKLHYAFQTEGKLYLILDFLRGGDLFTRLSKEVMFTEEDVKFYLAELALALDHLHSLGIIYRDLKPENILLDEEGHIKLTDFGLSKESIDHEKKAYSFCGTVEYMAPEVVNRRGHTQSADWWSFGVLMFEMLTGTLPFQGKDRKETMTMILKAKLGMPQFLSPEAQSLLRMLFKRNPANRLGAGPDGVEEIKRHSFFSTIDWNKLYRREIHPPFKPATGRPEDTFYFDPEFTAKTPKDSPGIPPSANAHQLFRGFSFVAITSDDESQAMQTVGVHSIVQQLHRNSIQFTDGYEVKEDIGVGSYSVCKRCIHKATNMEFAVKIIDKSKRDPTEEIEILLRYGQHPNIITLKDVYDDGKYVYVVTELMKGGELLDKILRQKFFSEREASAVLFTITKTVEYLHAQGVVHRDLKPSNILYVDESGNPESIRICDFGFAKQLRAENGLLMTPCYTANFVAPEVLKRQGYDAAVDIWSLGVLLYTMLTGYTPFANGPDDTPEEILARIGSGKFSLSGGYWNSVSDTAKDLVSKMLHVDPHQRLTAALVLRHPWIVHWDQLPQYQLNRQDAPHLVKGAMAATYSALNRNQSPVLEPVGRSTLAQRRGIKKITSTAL

- binding of DMF to RSK2 in co-crystal structure [1]: binding of one DMF molecule to RSK2
SMILES: COC(=O)/C=C/C(=O)OC [DMF, dimethyl fumarate]
- covalent modification of C599 of RSK2 by DMF (RSK2 cysteine 599 (C599)): Covalent modification of C599 was identified
- effect of DMF on phosphorylation of S386 of RSK2 mutant C599 to valine (RSK2): no decrease in the phosphorylation of S386 was observed
- effect of DMF on phosphorylation of S376 of MSK1 mutant C603 to valine (human MSK1): no decrease in the phosphorylation of S376 was observed
